From ChEMBL document CHEMBL1201862, “PubChem BioAssay data set” (2004)
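Growth conditions: 96-well plates. Treatment: test compound, 48 hours, 5 concentrations. Analysis: linear interpolation between bracketing concentrations; unreached endpoints set to highest concentration. GI50 is the concentration that inhibits growth by half.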 Activity calls are given as the source filed them. Cut-off read from the data, not from the text of the source: active = GI50 up to about 1.1 µM and inactive = higher.

What was measured:
Experiment in all cases: inhibition of tumour cell growth, NCI panel, 48 h
[1] = tested on: SNB-75
[2] = tested on: COLO 205
[3] = tested on: SK-MEL-28
[4] = tested on: ACHN
[5] = tested on: SK-MEL-5
[6] = tested on: PC-3
[7] = tested on: OVCAR-5
[8] = tested on: RPMI-8226
[9] = tested on: HT-29
[10] = tested on: EKVX
[11] = tested on: SR
[12] = tested on: 786-0
[13] = tested on: HCT-15
[14] = tested on: DU-145
[15] = tested on: HCT-116
[16] = tested on: SW-620
[17] = tested on: Hs-578T
[18] = tested on: MDA-N
[19] = tested on: SN12C

c1ccc(/N=C2\SC(c3ccccc3)CN2C23CC4CC(CC(C4)C2)C3)cc1 (centres undefined)
GI50 [1]: > 100 µM (inactive)
GI50 [2]: > 100 µM (inactive)
GI50 [3]: > 100 µM (inactive)
GI50 [4]: > 100 µM (inactive)
GI50 [5]: > 100 µM (inactive)
GI50 [6]: > 100 µM (inactive)
GI50 [7]: > 100 µM (inactive)
GI50 [8]: > 100 µM (inactive)
GI50 [9]: > 100 µM (inactive)
GI50 [10]: > 100 µM (inactive)
GI50 [11]: > 100 µM (inactive)
GI50 [12]: > 100 µM (inactive)
GI50 [13]: > 100 µM
GI50 [14]: > 100 µM (inactive)
GI50 [15]: > 100 µM (inactive)
GI50 [16]: > 100 µM (inactive)
GI50 [17]: > 100 µM (inactive)
GI50 [18]: > 100 µM (inactive)
GI50 [19]: > 100 µM (inactive)

O=C(O)CN1CCNCCNCC1
GI50 [1]: 17.5 µM (inactive)
GI50 [2]: > 100 µM (inactive)
GI50 [3]: > 100 µM (inactive)
GI50 [4]: > 100 µM (inactive)
GI50 [5]: > 100 µM (inactive)
GI50 [6]: > 100 µM (inactive)
GI50 [7]: > 100 µM (inactive)
GI50 [8]: > 100 µM (inactive)
GI50 [9]: > 100 µM (inactive)
GI50 [10]: > 100 µM (inactive)
GI50 [11]: > 100 µM (inactive)
GI50 [12]: > 100 µM (inactive)
GI50 [13]: > 100 µM
GI50 [14]: > 100 µM (inactive)
GI50 [15]: > 100 µM (inactive)
GI50 [16]: > 100 µM (inactive)
GI50 [17]: > 100 µM (inactive)
GI50 [18]: > 100 µM (inactive)
GI50 [19]: > 100 µM (inactive)

CC(C)/C(Cl)=N\OC(=O)Nc1ccc(F)cc1F
GI50 [1]: 17.3 µM (inactive)
GI50 [2]: 1.87 µM (inactive)
GI50 [3]: 11 µM (inactive)
GI50 [4]: 3.36 µM (inactive)
GI50 [5]: 14.3 µM (inactive)
GI50 [6]: 17.2 µM (inactive)
GI50 [7]: 17.4 µM (inactive)
GI50 [8]: 4.69 µM (inactive)
GI50 [9]: 3.82 µM (inactive)
GI50 [10]: 6.53 µM (inactive)
GI50 [11]: 1.67 µM (inactive)
GI50 [12]: 3.9 µM (inactive)
GI50 [13]: 7.67 µM
GI50 [14]: 17.8 µM (inactive)
GI50 [15]: 3.78 µM (inactive)
GI50 [16]: 1.78 µM (inactive)
GI50 [17]: 23.3 µM (inactive)
GI50 [18]: 9.33 µM (inactive)
GI50 [19]: 6.78 µM (inactive)

S=C1N=C(Cl)/C(=C\c2ccccc2)N1
GI50 [1]: > 100 µM (inactive)
GI50 [2]: > 100 µM (inactive)
GI50 [3]: > 100 µM (inactive)
GI50 [4]: > 100 µM (inactive)
GI50 [5]: > 100 µM (inactive)
GI50 [6]: > 100 µM (inactive)
GI50 [7]: > 100 µM (inactive)
GI50 [8]: > 100 µM (inactive)
GI50 [9]: > 100 µM (inactive)
GI50 [10]: > 100 µM (inactive)
GI50 [11]: > 100 µM (inactive)
GI50 [12]: > 100 µM (inactive)
GI50 [13]: > 100 µM
GI50 [14]: > 100 µM (inactive)
GI50 [15]: > 100 µM (inactive)
GI50 [16]: > 100 µM (inactive)
GI50 [17]: > 100 µM (inactive)
GI50 [18]: > 100 µM (inactive)
GI50 [19]: > 100 µM (inactive)

Nc1ncnc2c1ncn2C1C=CC(CP(=O)(O)O)C1 (centres undefined)
GI50 [1]: > 100 µM (inactive)
GI50 [2]: > 100 µM (inactive)
GI50 [3]: > 100 µM (inactive)
GI50 [4]: > 100 µM (inactive)
GI50 [5]: > 100 µM (inactive)
GI50 [6]: > 100 µM (inactive)
GI50 [7]: > 100 µM (inactive)
GI50 [8]: > 100 µM (inactive)
GI50 [9]: > 100 µM (inactive)
GI50 [10]: > 100 µM (inactive)
GI50 [11]: > 100 µM (inactive)
GI50 [12]: > 100 µM (inactive)
GI50 [13]: > 100 µM
GI50 [14]: > 100 µM (inactive)
GI50 [15]: > 100 µM (inactive)
GI50 [16]: > 100 µM (inactive)
GI50 [17]: 11 µM (inactive)
GI50 [18]: > 100 µM (inactive)
GI50 [19]: > 100 µM (inactive)

CC(=O)O[C@H]1C(=O)[C@@]2(C)[C@H]([C@H](OC(=O)c3ccccc3)[C@]3(O)C[C@H](OC(=O)[C@H](O)[C@@H](NC(=O)OC(C)(C)C)c4ccco4)C(C)=C1C3(C)C)[C@]1(OC(C)=O)CO[C@@H]1C[C@@H]2O
GI50 [1]: < 0.005 µM (active)
GI50 [2]: < 0.005 µM (active)
GI50 [3]: 0.205 µM (active)
GI50 [4]: 8.2 µM (inactive)
GI50 [5]: < 0.005 µM (active)
GI50 [6]: < 0.005 µM (active)
GI50 [7]: 0.00724 µM (active)
GI50 [8]: < 0.005 µM (active)
GI50 [9]: < 0.005 µM (active)
GI50 [10]: 14.7 µM (inactive)
GI50 [11]: 0.053 µM (active)
GI50 [12]: 0.00614 µM (active)
GI50 [13]: 0.00948 µM
GI50 [14]: < 0.005 µM (active)
GI50 [15]: < 0.005 µM (active)
GI50 [16]: < 0.005 µM (active)
GI50 [17]: < 0.005 µM (active)
GI50 [18]: < 0.005 µM (active)
GI50 [19]: < 0.005 µM (active)
